Reference: PubChem BioAssay AID190 (DTP/NCI, 2004)
Inconclusive results and toxic doses are left out. The calls were made as follows: active = survival T/C of 150% or more; inactive = T/C below 125% in these data.

Test system: AKR/Lw mice, AKR lymphoma ip, median survival T/C
Experiment: NCI In Vivo Anticancer Drug Screen. Data for tumor model Lymphoma AKR (Transplanted) (intraperitoneal) in AKR/Lw mice
Settings: endpoint: median survival time, vehicle: saline, higher = longer survival
Method: The antitumor activity of compounds was measured in mice bearing transplantable tumors. Survival or tumor size were measured and the results are expressed as the measurement made in the treated group (T) divided by the measurement made in the vehicle treated control group (C). The tumor model used in this assay is Lymphoma AKR (Transplanted) (intraperitoneal) in AKR/Lw mice

Measured: T/C

COc1ccccc1N1C(N)=NC(N)=NC1(C)C
inactive: dose: 11.0 mg/kg/injection, schedule: Q01DX001 (ip) 109 % of control | dose: 11.0 mg/kg/injection, schedule: Q04DX003 (ip) 91 % of control | dose: 16.0 mg/kg/injection, schedule: Q01DX001 (ip) 88 % of control | dose: 25.0 mg/kg/injection, schedule: Q01DX001 (ip) 113 % of control | dose: 25.0 mg/kg/injection, schedule: Q04DX003 (ip) 102 % of control | dose: 37.5 mg/kg/injection, schedule: Q01DX001 (ip) 102 % of control | dose: 37.5 mg/kg/injection, schedule: Q04DX003 (ip) 88 % of control | dose: 100.0 mg/kg/injection, schedule: Q01DX001 (ip) 90 % of control
